Data as given in the supplement of paper PMC10307832.

Experiments:
Assay in all cases: relative viability (nuclei count vs DMSO), 5 days (fraction); higher = more cells survive
CAP-232 + OSI-027 = compound: C[C@H]([C@@H](C(=O)N)NC(=O)[C@@H]1CSSC[C@@H](C(=O)N[C@H](C(=O)N[C@@H](C(=O)N[C@H](C(=O)N1)CCCCN)CC2=CNC3=CC=CC=C32)CC4=CC=C(C=C4)O)NC(=O)[C@@H](CC5=CC=CC=C5)N)O [CAP-232] + COc1cccc2cc(-c3nc([C@H]4CC[C@H](C(=O)O)CC4)n4ncnc(N)c34)[nH]c12 [OSI-027] (partner 0.5 µM)
Method in brief: (§1)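 Lung cancer cell lines were seeded in 1536-well plates and dosed by pin tool the next day, with either a single drug or a fixed anchor-drug dose combined with five library-drug doses (not always all listed) spaced in √10 steps. Five days later, one step fixed the cells and stained their nuclei (final 0.05% Triton X-100, 1% formaldehyde, 1 ug/ml Hoechst), and nuclei were counted on 4× images. Relative viability is the nuclei count in treated wells divided by the count in vehicle wells, and each value is the median of duplicate plates.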

CAP-232 + Navitoclax = compound: C[C@H]([C@@H](C(=O)N)NC(=O)[C@@H]1CSSC[C@@H](C(=O)N[C@H](C(=O)N[C@@H](C(=O)N[C@H](C(=O)N1)CCCCN)CC2=CNC3=CC=CC=C32)CC4=CC=C(C=C4)O)NC(=O)[C@@H](CC5=CC=CC=C5)N)O [CAP-232] + CC1(C)CCC(c2ccc(Cl)cc2)=C(CN2CCN(c3ccc(C(=O)NS(=O)(=O)c4ccc(N[C@H](CCN5CCOCC5)CSc5ccccc5)c(S(=O)(=O)C(F)(F)F)c4)cc3)CC2)C1 [Navitoclax] (partner 0.5 µM)
Method in brief: as §1

CAP-232 + Tozasertib = compound: C[C@H]([C@@H](C(=O)N)NC(=O)[C@@H]1CSSC[C@@H](C(=O)N[C@H](C(=O)N[C@@H](C(=O)N[C@H](C(=O)N1)CCCCN)CC2=CNC3=CC=CC=C32)CC4=CC=C(C=C4)O)NC(=O)[C@@H](CC5=CC=CC=C5)N)O [CAP-232] + Cc1cc(Nc2cc(N3CCN(C)CC3)nc(Sc3ccc(NC(=O)C4CC4)cc3)n2)n[nH]1 [Tozasertib] (partner 0.1 µM)
Method in brief: as §1

CAP-232 + Foretinib = compound: C[C@H]([C@@H](C(=O)N)NC(=O)[C@@H]1CSSC[C@@H](C(=O)N[C@H](C(=O)N[C@@H](C(=O)N[C@H](C(=O)N1)CCCCN)CC2=CNC3=CC=CC=C32)CC4=CC=C(C=C4)O)NC(=O)[C@@H](CC5=CC=CC=C5)N)O [CAP-232] + COc1cc2c(Oc3ccc(NC(=O)C4(C(=O)Nc5ccc(F)cc5)CC4)cc3F)ccnc2cc1OCCCN1CCOCC1 [Foretinib] (partner 0.25 µM)
Method in brief: as §1

CAP-232 + Pemetrexed = compound: C[C@H]([C@@H](C(=O)N)NC(=O)[C@@H]1CSSC[C@@H](C(=O)N[C@H](C(=O)N[C@@H](C(=O)N[C@H](C(=O)N1)CCCCN)CC2=CNC3=CC=CC=C32)CC4=CC=C(C=C4)O)NC(=O)[C@@H](CC5=CC=CC=C5)N)O [CAP-232] + Nc1nc2[nH]cc(CCc3ccc(C(=O)N[C@@H](CCC(=O)O)C(=O)O)cc3)c2c(=O)[nH]1 [Pemetrexed] (partner 0.2 µM)
Method in brief: as §1

Row | Cell Line | relative viability (CAP-232 + OSI-027; first compound 0.4 µM) | relative viability (CAP-232 + OSI-027; first compound 1.265 µM) | relative viability (CAP-232 + OSI-027; first compound 4 µM) | relative viability (CAP-232 + OSI-027; first compound 12.65 µM) | relative viability (CAP-232 + Navitoclax; first compound 0.4 µM) | relative viability (CAP-232 + Navitoclax; first compound 1.265 µM) | relative viability (CAP-232 + Navitoclax; first compound 4 µM) | relative viability (CAP-232 + Navitoclax; first compound 12.65 µM) | relative viability (CAP-232 + Tozasertib; first compound 0.4 µM) | relative viability (CAP-232 + Tozasertib; first compound 1.265 µM) | relative viability (CAP-232 + Tozasertib; first compound 4 µM) | relative viability (CAP-232 + Tozasertib; first compound 12.65 µM) | relative viability (CAP-232 + Foretinib; first compound 0.4 µM) | relative viability (CAP-232 + Foretinib; first compound 1.265 µM) | relative viability (CAP-232 + Foretinib; first compound 4 µM) | relative viability (CAP-232 + Foretinib; first compound 12.65 µM) | relative viability (CAP-232 + Pemetrexed; first compound 0.4 µM) | relative viability (CAP-232 + Pemetrexed; first compound 1.265 µM) | relative viability (CAP-232 + Pemetrexed; first compound 4 µM) | relative viability (CAP-232 + Pemetrexed; first compound 12.65 µM)
1 | HCC-15 | 0.714 | 0.662 | 0.69 | 0.521 | 0.736 | 0.726 | 0.774 | 0.576 | 0.378 | 0.329 | 0.382 | 0.435 | 1.08 | 1.07 | 1.09 | 0.652 | 0.19 | 0.218 | 0.223 | 0.0856
2 | HCC-44 | 0.636 | 0.507 | 0.489 | 0.371 | 1.03 | 0.977 | 1.16 | 1.14 | 0.919 | 0.95 | 1.18 | 1.09 |  |  |  |  | 0.648 | 0.622 | 0.626 | 0.686
3 | HCC-78 | 0.356 | 0.364 | 0.368 | 0.397 | 0.789 | 0.658 | 0.697 | 0.732 | 0.257 | 0.405 | 0.493 | 0.492 | 0.564 | 0.562 | 0.473 | 0.568 | 0.939 | 0.912 | 0.901 | 0.899
4 | HCC-366 | 0.986 | 0.875 | 1.22 | 0.82 | 1.06 | 1.17 | 1.2 | 1.09 | 0.132 | 0.106 | 0.108 | 0.078 | 0.914 | 0.948 | 0.891 | 0.898 | 0.201 | 0.175 | 0.202 | 0.17
5 | HCC-827 | 0.896 | 0.786 | 0.831 | 0.637 | 0.96 | 1 | 1.03 | 0.993 | 0.525 | 0.41 | 0.417 | 0.484 | 1.05 | 1 | 1.01 | 1.01 | 0.266 | 0.277 | 0.222 | 0.231
6 | IA-LM |  |  |  |  | 0.78 | 0.871 | 0.805 | 0.372 |  |  |  |  | 1.15 | 1.14 | 1.22 | 0.386 |  |  |  | 
7 | LCLC-103H | 0.481 | 0.375 | 0.496 | 0.464 |  |  |  |  | 0.544 | 0.47 | 0.479 | 0.572 | 0.838 | 0.735 | 0.802 | 0.827 | 0.443 | 0.441 | 0.431 | 0.445
8 | NCI-H358 | 0.665 | 0.864 | 0.71 | 0.664 |  |  |  |  | 0.102 | 0.115 | 0.089 | 0.0797 | 0.678 | 0.841 | 0.686 | 0.563 | 0.151 | 0.171 | 0.187 | 0.187
9 | NCI-H522 | 0.72 | 0.702 | 0.806 | 0.696 |  |  |  |  | 0.555 | 0.58 | 0.503 | 0.544 |  |  |  |  | 0.921 | 1.08 | 0.888 | 0.974
10 | NCI-H650 | 0.619 | 0.506 | 0.602 | 0.543 |  |  |  |  | 0.749 | 0.747 | 0.713 | 0.7 | 1.01 | 1 | 0.969 | 0.926 | 0.869 | 0.786 | 0.799 | 0.932
11 | NCI-H661 | 0.757 | 0.692 | 0.753 | 0.545 |  |  |  |  | 0.367 | 0.372 | 0.347 | 0.329 | 0.986 | 0.951 | 1.05 | 1.02 | 0.885 | 0.872 | 0.98 | 0.827
12 | NCI-H727 | 0.593 | 0.515 | 0.795 | 0.421 |  | 0.431 | 0.377 | 0.347 | 0.491 | 0.525 | 0.698 | 0.499 | 0.933 | 0.92 | 0.845 | 0.824 |  |  |  | 
13 | NCI-H1563 | 0.757 | 0.673 | 0.647 | 0.613 |  |  |  |  |  |  |  |  | 0.972 | 0.886 | 0.939 | 0.639 | 0.802 | 0.655 | 0.744 | 0.669
14 | NCI-H1703 |  |  |  |  | 1.09 | 0.901 | 0.964 | 0.793 |  |  |  |  | 0.304 | 0.364 | 0.323 | 0.409 |  |  |  | 
15 | NCI-H1792 | 0.996 | 0.76 | 0.875 | 0.832 | 1.2 | 0.638 | 0.656 | 0.452 |  |  |  |  |  |  |  |  | 1.12 | 0.78 | 0.849 | 0.465
16 | NCI-H2342 | 0.565 | 0.555 | 0.623 | 0.568 |  |  |  |  | 0.479 | 0.459 | 0.436 | 0.437 | 0.944 | 1.03 | 0.995 | 0.995 | 0.798 | 0.745 | 0.779 | 0.835
17 | SW 900 | 0.66 | 0.54 | 0.726 | 0.449 |  |  |  |  | 0.658 | 0.593 | 0.583 | 0.582 | 0.819 | 0.816 | 0.96 | 0.858 | 0.487 | 0.48 | 0.47 | 0.499
